Consider 13 compounds from PubChem BioAssay (NCI).

What all share (experiment): inhibition of tumour cell growth, NCI panel, 48 h
In experiment [1] the test system is CAKI-1 renal.
The subject of experiment [2] is DU-145 prostate.
Experiment [3] has as its system HCT-15 colon.
Experiment [4] has as its system MALME-3M melanoma.
For experiment [5], the system named is NCI-H460 lung.
Experiment [6] concerns OVCAR-5 ovarian.
The subject of experiment [7] is OVCAR-8 ovarian.
For experiment [8], the system named is PC-3 prostate.
The test system of experiment [9] is SN12C renal.
Experiment [10] has as its system UO-31 renal.

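Results reflect a 48-hour exposure of cells in 96-well plates to compound at five concentrations. At the TGI there is no net growth.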

Regarding `COc1cc2ccc(C(=O)NCCCNC(=O)c3ccc4cc(OC)c(OC)cc4c3)cc2cc1OC`, the TGI in experiment [1], in [2], in [3], in [4], in experiment [5] and in experiment [6] was greater than 100 µM throughout. The TGI in experiment [7], in experiment [8], in experiment [9] and in [10] was greater than 100 µM in each case.

In the case of `CC(=O)n1cc(C2CC23N=C(c2ccccc2)OC3=O)c2ccccc21` (configuration not stated), the TGI is 36 µM in experiment [1]; 33.2 µM in experiment [2]; 58.9 µM in experiment [3]; 58.2 µM in [4]; greater than 64.9 µM in experiment [5]; 49.7 µM in [6]. Further, the TGI in experiment [7] came to 35.3 µM; in [8], 41.5 µM; in [9], 31.9 µM; in experiment [10], 30.9 µM.

`C[C@]12CC[C@H]3[C@@H](CCC4=CC(=O)C=C[C@@]43OC(=O)C(F)(F)F)[C@@H]1CCC2=O`: the TGI in experiment [1], in experiment [2], in experiment [3], in [4], in [5] and in [6] was greater than 100 µM in each case. Besides, the TGI in experiment [7], in experiment [8], in experiment [9] and in [10] was greater than 100 µM each time.

For `COc1cc(/C=C2\CC/C(=C\c3cc(OC)c(O)c(OC)c3)C2=O)cc(OC)c1O`, the TGI in [1] is 7.32 µM; in experiment [2] it was 16.5 µM; in experiment [3] it was 18.7 µM; in experiment [4] it was 1.74 µM; in experiment [5] it was greater than 100 µM; in experiment [6], greater than 100 µM. In addition, the TGI in experiment [7] was greater than 26.1 µM; in experiment [8] it was 19.7 µM; in experiment [9], greater than 29.3 µM; in experiment [10], greater than 26.7 µM.

Regarding `CN(Cc1cnc2nc(N)nc(N)c2n1)c1ccc(C(=O)NC23CC4CC(CC(C4)C2)C3)cc1`, the TGI is 27.8 µM in [1]; 38.1 µM in experiment [2]; 16.6 µM in [3]; 26.3 µM in experiment [4]; 18.6 µM in [5]; 24.7 µM in experiment [6]. The TGI is 19.9 µM in experiment [7], 19 µM in experiment [8], 56.8 µM in experiment [9] and 24.1 µM in experiment [10].

On to `C[C@@H]1[C@@H](C)C(c2ccccc2)O[Si]1(C(C)(C)C)C(C)(C)C` (some centres not stated), for which the TGI in [1] was 33 µM; in [2], 31.6 µM; in experiment [3], greater than 55.3 µM; in experiment [4] it was 37 µM; in experiment [5], 32.2 µM; in experiment [6], 31.4 µM. Further, the TGI stood at 33.8 µM in [7], 33.1 µM in [8], 31.3 µM in [9] and 31 µM in experiment [10].

`C#CC(O)(c1nc2ccccc2s1)c1nc2ccccc2s1`: the TGI in experiment [1] is greater than 100 µM; in experiment [2] it was greater than 100 µM; in [3], 60.6 µM; in experiment [4], greater than 100 µM; in experiment [6] it was 51.6 µM; in experiment [7] it was 51.5 µM. In addition, the TGI was found to be 64.7 µM in experiment [8], 42.6 µM in experiment [9] and 29.4 µM in [10].

On to `Cc1cc(S(=O)(=O)Nc2nc3ncccc3[nH]2)c(S)cc1Cl`, for which the TGI in experiment [1], in experiment [2], in experiment [3], in experiment [4], in experiment [5] and in experiment [6] was greater than 100 µM each time. Besides, the TGI in experiment [7], in experiment [8] and in experiment [9] was greater than 100 µM in each case.

Regarding `N#CC1(C#N)C(C#N)(C#N)C1(C#N)C(N)=O`, the TGI in experiment [1], in [2], in experiment [3], in experiment [4], in experiment [5] and in [6] was greater than 100 µM in each case. The TGI in experiment [7], in experiment [8], in experiment [9] and in experiment [10] was greater than 100 µM in each case.

Regarding `CC1C(NNC(N)=O)Oc2cc3c(cc2C1c1ccccc1O)OCO3` (configuration not stated), the TGI was greater than 100 µM in [1]; greater than 100 µM in experiment [2]; greater than 100 µM in experiment [3]; 97.2 µM in [4]; greater than 100 µM in [5]; greater than 100 µM in [6]. Further, the TGI in experiment [8] is 90.6 µM; in experiment [9], greater than 100 µM; in experiment [10] it was greater than 100 µM.

Turning to `COc1ccccc1-n1c(=O)n(C)c(=O)n1C(C)(C)C`, the TGI in experiment [1], in experiment [2], in experiment [3], in experiment [4], in experiment [5] and in experiment [6] was greater than 100 µM throughout. In addition, the TGI in experiment [7], in [8], in experiment [9] and in experiment [10] was greater than 100 µM in each case.

As for `COC(=O)C1=C(OC(=O)/C(=C/c2ccccc2)c2ccc(OC)cc2)C(C(=O)OC)[C@@]2(O)[C@@H](C(=O)OC)[C@H](C)C[C@@H]1[C@@H]2C(=O)OC` (some centres not stated), the TGI in [1], in experiment [2], in experiment [3], in [4], in experiment [5] and in [6] was greater than 100 µM throughout. Moreover, the TGI in experiment [7], in experiment [8], in experiment [9] and in [10] was greater than 100 µM throughout.

Consider `Cc1ccc(S(=O)(=O)N2C[C@@H]3CC[C@]4(CO[Si](C)(C)C(C)(C)C)N[C@@H](c5ccccc5)[C@H]2[C@H]34)cc1`, for which the TGI in experiment [1] was greater than 100 µM; in [2], greater than 100 µM; in [3], greater than 100 µM; in experiment [4], 46.3 µM; in experiment [5] it was greater than 100 µM; in experiment [6], greater than 100 µM. In addition, the TGI in [7] was greater than 100 µM; in [8], greater than 100 µM; in experiment [9], 76.2 µM; in experiment [10] it was greater than 100 µM.
